From US20130178448A1, “Treatment of Respiratory Disorders” (priority 2010, published 2013)

Columns and labels:
[1] = rat, in vivo, 4 h
Procedure: Vehicle and test compounds (Groups 1-7) were each administered orally (PO) to fasted rats. Each group included five animals. […] The animals were sacrificed four hours after dosing and gastric mucosal lesions were scored. A score of 50 percent or more (≧50%) relative to the aspirin-treated group (150 mg/kg PO, set as 100%) is considered positive in gastric irritation and is shown in parenthesis; and
Seven groups of rats, each group consisting of five animals, were each administered orally (PO) with test formulations and control compounds. […] Group 3 animals were treated with 150 mg/kg aspirin, and Group 4 animals were treated with 100 mg/kg of ibuprofen dissolved in 1% CMC vehicle.
The animals were sacrificed four hours after dosing with the test compound (or control vehicle) and gastric mucosal lesions were then scored according to the following criteria: 0=no lesions, 1=hyperemia, 2=one or two slight lesions, 3=more than two slight lesions or severe lesions, 4=very severe lesions (Herrerias et al., Dig. Dis. Sci., 2003). A score of 50 percent or more (≧50%) relative to the aspirin-treated group (150 mg/kg PO, set as 100%) was considered positive in gastric irritation and is shown in parenthesis in the table of FIG. 5.

[2] = test system: Influenza A/PR/8/34 (H1N1 virus); assay: In vivo mouse viral challenge (weight loss and survival of influenza-challenged mice); set-up: species or system mice (C57BLK/6); settings: intraperitoneal, 335.6 μg/animal in 10 μl DMSO
Procedure: Five groups (n=10) of C57BLK/6 female mice (6-7 weeks old), were divided into five experimental groups containing ten animals each. On day 1, animals received an intranasal lethal dose (50 μl total, 25 μl nostril) of Influenza A/PR/8/34 under halothane induced anaesthesia.
The animals were weighed, and monitored for signs of infection daily up to day 6 when all animals were culled. FIGS. 1-4 represent the average weight loss per group and animal survival.
Using standard techniques as described above, mice were infected with a H1N1 virus which was allowed to become established in each of the subjects. Each test mouse was then treated with ibuprofen, either intraperitoneally (in DMSO) or orally (in the lipid/ethanol formulation, BC1054). The weight loss of both treated and untreated mice was then determined.

For CC(=O)Oc1ccccc1C(=O)O [Aspirin], the “ulceration score relative to aspirin (150 mg/kg PO, set as 100%)” value [1] was 100%.
With CC(C)Cc1ccc(C(C)C(=O)O)cc1 (stereo not drawn) [ibuprofen] the “percentage survival rate compared with control mice” value ([2]; single dose day 3, especially after day four, FIG. 2) was “lower percentage survival rate than the control mice” and the “higher reduction in weight loss than in the control mice” value ([2]; single dose day 3 post-challenge, vs vehicle control, FIG. 1) was about 30%.
